Laboratory results reported in patent US7326710B2, “Aralkyl formyl-alkyl piperazine derivatives and their uses as a cerebral nerve protective agent” (Shanghai Institute of Pharmaceutical Industry, priority 2002, dated 2008).
Like-named read-outs stand apart in the source and are kept apart here. Marks after values point to notes of the source that are not given here.

Columns and labels:
[1] = test system: focal cerebral ischemia in rats; assay: Focal cerebral infarction, electrical coagulation to occlude MCA; format: in vivo; parameters: The neurological deficit score After the operation / The neurological deficit score 24 h: scale not given here
Experimental: a. The Focal Cerebral-Infarction of Using Electrical Coagulation to Occlude MCA:
For the 5 mg/kg group, the percentage of the rat's infarct size was decreased, but the difference is not significant (p=0.098). The effect is not significant for the Nimodipine mg/kg.

[2] = test system: focal cerebral ischemia in rats; assay: Focal cerebral ischemia in rats by occlusion of middle cerebral artery (MCA); format: in vivo; conditions: 20 mg/kg p.o.
Experimental: The focal ischemia rat model by occlusion of middle cerebral artery (MCA) was used to determine the protective effects of the compounds on focal cerebral ischemia. The infarct size after focal cerebral ischemia and the weight percentage of cerebral hemisphere were calculated to evaluate the compounds' effects on focal cerebral ischemia.

[3] = test system: primary culture of rat cerebral cortical neuronal cells; assay: Protective effect on neurons damaged with NMDA, LDH activity; format: cell-based; conditions: NMDA 1 mmol/L
Description: Primary culture of rat cerebral cortical neuronal cells were used. […] This is further evidence that IV-23 is a new NMDA receptor antagonist, and has anti-cerebral ischemic injury functions as well.

[4] = test system: rats platelet aggregation induced by ADP; assay: Platelet aggregation induced by ADP; format: cell-based; conditions: concentration 1×10^−4M
[5] = test system: focal cerebral ischemia in rats; assay: Temporary occlusion of the right MCA in rats caused by suture; format: in vivo; conditions: for Percent of volume (Means ± SEM) / Percent of infarct (%) (Means ± SEM): rats; for Percent of volume (Means ± SEM): length of ischemia 6 hr
Description: b. Temporary occlusion of the right MCA in rats caused by suture.

[6] = Ames test; format: cell-based
Description: The Ames test of IV-23 was negative.

[7] = test system: focal cerebral ischemia in rats; assay: Focal brain injury, occlusion of MCA induced by photochemical reaction; format: in vivo
Experimental: a. Focal brain injury caused by photochemical induction of occlusion of the artery:
The percentage of infarction was lowered by 52% at 24 hours after operation.

[8] = test system: global cerebral ischemia-reperfusion injury in rats; assay: Global cerebral ischemia-reperfusion in rats, four arteries reversible occlusion; format: in vivo
Description: The effect of IV-23 on cerebral ischemia-reperfusion in rats was studied using four arteries reversible occlusion by measuring the recovering time of the electroencephalogram and the righting reflex (a short time indicates a strong effect).

[9] = test system: focal cerebral ischemia in rats; assay: Focal cerebral infarction, electrical coagulation to occlude MCA; format: in vivo; parameters: The neurological deficit score After the operation / The neurological deficit score 24 h: scale not given here; remark: listed apart in the source
[10] = test system: NMDA receptor; assay: Maximum contraction of isolated guinea pig longitudinal ileum muscle preparations induced by L-Glu; conditions: compound 10^−5M; contraction induced by L-Glu
Description: According to the literature (Luzzi, Br J Pharmacol, 95:1271, 1988), maximum contraction of isolated longitudinal ileomuscle preparations of guinea pig induced by L-Glu, were used to examine the activities of the compounds on the NMDA receptor.

[11] = test system: cerebral anoxia in mice; assay: Anoxic anoxia experiment in mice (closed wide-mouth bottles with soda lime); format: in vivo, Male Kunming mice; conditions: for ED50: Mus musculus, sc, survival time in anoxic anoxia
Experimental: Methods: Male Kunming mice were divided into 8 groups, 12 mice for each group. One group is injected subcutaneously with saline ([…], sc), other groups with ACEA1021 (NMDA receptor antagonist under clinical trial) or IV-23. 30 minutes after administration, the animals were put separately into wide-mouth bottles with soda lime, which more quickly closed. The survival time for each mice was recorded, and the group average of survival time was calculated and compared with the saline group.

[12] = Acute toxicity; conditions: mouse, in vivo, mice, read-out: LD50 (95% confidence limit)
[13] = test system: NMDA receptor; assay: Whole-cell patch clamp, current induced by NMDA in isolated rat CA1 pyramidal neuron; format: cell-based; conditions: NMDA 100 μm, n=4, read-out: IC50, inhibition of the electric current induced by NMDA
Experimental: Methods: The whole-cell patch-clamp technique. Separate the rat's hippocampi, slash the brain piece into 500 μm thick. Get the CA1 area of hippocampi, put it into artificial cerebral spinal fluid (ACSF) to incubate for more than 1 hour. Then the solution is oxygen saturated. After the incubation of the brain piece, put it into ACSF with protease XIII (1 mg/ml) for 5 minutes. Using trypsin inhibitor type II-S (3 mg/ml) to terminate the protease digestion, and then using test tube to break the brain piece to obtain free cells, let it stand for a while and then start the experiment.
The electro-physiological experiment used the technique of whole-cell patch-clamp. The amplifier in the experiment is Axon-200A patch-clamp amplifier, with the DigiData-1200A as a sampling port. The software used is AxoScope Version 1.0. The experiment uses as a standard the electric current generated by the whole-cell. The effect of various samples on the electric current was observed. IC50 was determined by proportion of different concentrations to the electric current of NMDA.

[14] = test system: rodent; assay: Rodent microkernel experiment; conditions: in vivo
Description: The rodent microkernel experiment of IV-23 was negative.

[15] = test system: mammalian cultural cell; assay: Chromosome aberration trial in mammalian cultural cell; format: cell-based
Description: The chromosome aberration trial in mammalian cultural cell was negative.

[16] = test system: anoxia induced by sodium nitrite in mice; assay: Anti-cerebral anoxia in mice, anoxia induced by sodium nitrite; format: in vivo; conditions: Mus musculus, sc, mice; sodium nitrite 225 mg/kg ip; compound 20 mg/kg sc; read-out: Prolonging the survival duration (%)
Experimental: The rates of the prolongation of 9 compounds (IV-2, 10, 23, 32, 34, 36, 39, 40, 41) were more than 50%, which indicated the effect of anti-cerebral anoxia. IV-23 and IV-2 prolonged the survival duration by 100% of the animals, showing remarkably protective action for cerebral anoxia. (Table 3)
One model was established to test the time needed for mice to die because of anoxia caused by sodium nitrite (225 mg/kg, ip). IV-23 (20 mg/kg, sc) can prolong the time for 100%, indicating significant anti-cerebral anoxic anoxia activity.

Structure (SMILES): O=C(CN1CCN(CC(=O)c2ccccc2)CC1)NCc1ccccc1 [IV-23, N^1-phenacyl-N^4-[2-(benzylamino)-2-oxo-ethyl] piperazine]
- The neurological deficit score 24 h ([1]; Low-dose (5 mg/kg)): 8.1 ± 2.0
- The neurological deficit score After the operation ([1]; Low-dose (5 mg/kg)): 9.7 ± 0.5
- The percentage of infarction (%) ([1]; Low-dose (5 mg/kg)): 20.8 ± 8.8 %
- The weight of infarct area ([1]; Low-dose (5 mg/kg)): 0.15 ± 0.06 g
- The neurological deficit score 24 h ([1]; middle-dose (10 mg/kg)): 5.6 ± 2.7
- The neurological deficit score After the operation ([1]; middle-dose (10 mg/kg)): 9.6 ± 0.5
- Infarct volume [2]: 0.057 ± 0.012 g
- Neurological deficit After operation [2]: 9.4 ± 1.5
- LDH activities (U/g protein) (mean ± SEM) ([3]; Concentration 10): 1.86 ± 0.20 U/g protein
- Protective rate (%) ([3]; Concentration 10): 0%
- LDH activities (U/g protein) (mean ± SEM) ([3]; Concentration 50): 1.23 ± 0.14 U/g protein
- Protective rate (%) ([3]; Concentration 50): 48.1%
- LDH activities (U/g protein) (mean ± SEM) ([3]; Concentration 100): 1.05 ± 0.16 U/g protein
- Protective rate (%) ([3]; Concentration 100): 65.1%
- LDH activities (U/g protein) (mean ± SEM) ([3]; Concentration 200): 0.79 ± 0.19 U/g protein
- Protective rate (%) ([3]; Concentration 200): 89.6%
- inhibition of platelet aggregation induced by ADP [4]: did inhibit
- reduce the volume (of cerebral infarction) by ([5]; 5 mg/kg, after 3 hours of ischemia): 46.3%
- Percent of volume (Means ± SEM) ([5]; 2.5 mg/kg): 15.42 ± 1.71%
- Percent of volume (Means ± SEM) ([5]; 5 mg/kg): 12.90 ± 1.11%
- Percent of infarct (%) (Means ± SEM) ([5]; 5 mg/kg, time of occlusion 1 hr): 1.31 ± 0.50%
- Percent of infarct (%) (Means ± SEM) ([5]; 5 mg/kg, time of occlusion 3 hr): 8.57 ± 1.42%
- Percent of infarct (%) (Means ± SEM) ([5]; 5 mg/kg, time of occlusion 6 hr): 12.90 ± 1.11%
- Percent of volume (Means ± SEM) ([5]; 10 mg/kg): 14.92 ± 1.40%
- Ames test [6]: negative
- percentage of infarction lowered by ([7]; compared with vehicle (saline), 24 hours after operation): 52%
- Necrotic percent (%) ([7]; rats, 2 mg/kg): 11 ± 3***^ΔΔΔ %
- Score of praxiology After operation ([7]; rats, 2 mg/kg): 9.6 ± 0.5
- Weight of necrotic area (g) ([7]; rats, 2 mg/kg): 0.08 ± 0.02***^ΔΔΔ g
- Score of praxiology 24 h ([7]; rats, 2 mg/kg): 5.4 ± 1.9***^Δ
- Time for electroencephalogram to disappear(S) ([8]; High-dose (20 mg/kg ip)): 566.3 ± 430.3^*Δ S
- Time for electroencephalogram to recover (S) ([8]; High-dose (20 mg/kg ip)): 70.3 ± 20.1^***ΔΔΔ S
- Time for righting reflex to recover (S) ([8]; High-dose (20 mg/kg ip)): 147.0 ± 123.1^*ΔΔΔ S
- Time for electroencephalogram to disappear(S) ([8]; Low-dose (5 mg/kg ip)): 275.5 ± 338.1^*Δ S
- Time for electroencephalogram to recover (S) ([8]; Low-dose (5 mg/kg ip)): 184.6 ± 214.1^***ΔΔΔ S
- Time for righting reflex to recover (S) ([8]; Low-dose (5 mg/kg ip)): 550.0 ± 282.5^*ΔΔΔ S
- Time for electroencephalogram to disappear(S) ([8]; Middle-dose (10 mg/kg ip)): 557.1 ± 639.4^*Δ S
- Time for electroencephalogram to recover (S) ([8]; Middle-dose (10 mg/kg ip)): 334.3 ± 674.3^***ΔΔΔ S
- Time for righting reflex to recover (S) ([8]; Middle-dose (10 mg/kg ip)): 822.8 ± 741.9^*ΔΔ S
- The neurological deficit score 24 h ([9]; High-dose (20 mg/kg)): 6.7 ± 2.6
- The neurological deficit score After the operation ([9]; High-dose (20 mg/kg)): 9.7 ± 0.5
- The percentage of infarction (%) ([9]; High-dose (20 mg/kg)): 14.2 ± 6.8 %
- The weight of infarct area ([9]; High-dose (20 mg/kg)): 0.11 ± 0.05 g
- The percentage of infarction (%) ([9]; middle-dose (10 mg/kg)): 13.4 ± 8.4 %
- The weight of infarct area ([9]; middle-dose (10 mg/kg)): 0.10 ± 0.06 g
- antagonism % (restrain rate of contraction of preparations) [10]: 40%
- Average survival time (min)(means ± S.E.M.) ([11]; 10 mg/kg sc): 16.46 ± 0.89 min
- Average survival time (min)(means ± S.E.M.) ([11]; 20 mg/kg sc): 17.11 ± 0.53 min
- Average survival time (min)(means ± S.E.M.) ([11]; 40 mg/kg sc): 19.26 ± 0.91 min
- Average survival time (min)(means ± S.E.M.) ([11]; 80 mg/kg sc): 20.04 ± 1.56 min
- ED50 [11]: 6.2 mg/kg
- LD50 ([12]; iv, i.v.): 133 mg/kg
- LD50 ([12]; po, p.o.): 856 mg/kg
- IC50 [13]: 562.7 ± 1.1 µM
- rodent microkernel experiment [14]: negative
- chromosome aberration trial [15]: negative

Structure (SMILES): O=C(CN1CCN(CC=Cc2ccccc2)CC1)NCc1ccccc1 [IV-21, N1-[2-(benzylamino)-2-oxo-ethyl]-N^4-cinnamyl piperazine]
- Infarct volume [2]: 0.12 ± 0.07 g
- Neurological deficit After operation [2]: 9.8 ± 0.5
- Percentage of infarct volume (%) [2]: 15.53 ± 8.27 %
- Neurological deficit 24 h ([2]; 24 h after operation): 6.8 ± 2.5
- ILS at 20 mg/kg [16]: 33%

Structure (SMILES): O=c1[nH]c2cc(Cl)c(Cl)c([N+](=O)[O-])c2[nH]c1=O [ACEA-1021, reference compound]
- Percent of volume (Means ± SEM) ([5]; 10 mg/kg): 12.73 ± 1.24%
- Necrotic percent (%) ([7]; rats, 2 mg/kg): 17 ± 2 %
- Score of praxiology After operation ([7]; rats, 2 mg/kg): 9.5 ± 0.5
- Weight of necrotic area ([7]; rats, 2 mg/kg): 0.12 ± 0.02 g
- Score of praxiology 24 h ([7]; rats, 2 mg/kg): 7.1 ± 1.9
- Average survival time (min)(means ± S.E.M.) ([11]; 2.5 mg/kg sc): 17.33 ± 1.18 min
- Average survival time (min)(means ± S.E.M.) ([11]; 5 mg/kg sc): 18.20 ± 0.82 min
- Average survival time (min)(means ± S.E.M.) ([11]; 10 mg/kg sc): 19.47 ± 1.17 min
- Average survival time (min)(means ± S.E.M.) ([11]; 20 mg/kg sc): 20.04 ± 1.38 min
- ED50 [11]: 29.2 mg/kg
